In the supplement of paper PMC13380429:
Where a name gives a salt, the structure may show the parent alone.

Columns and labels:
Details in all cases: 72 h
[1] = tested on: U2OS; assay: cell viability relative to DMSO; higher = less toxic
[2] = tested on: Calu-3; assay: as above
[3] = tested on: Caco-2; assay: as above
[4] = tested on: Vero E6; assay: as above
[5] = tested on: U2OS; assay: drug sensitivity score (DSS) for viability; higher = more toxic; extreme values may be limits of the assay
[6] = tested on: Calu-3; assay: as above
[7] = tested on: Caco-2; assay: as above
[8] = tested on: Vero E6; assay: as above
[9] = tested on: U2OS; assay: relative viability EC50 (midpoint between 100% and the lowest measured viability); higher = less toxic
[10] = tested on: Calu-3; assay: as above
[11] = tested on: Caco-2; assay: as above
[12] = tested on: Vero E6; assay: as above
[13] = tested on: HepG2; assay: cell viability relative to DMSO; higher = less toxic
[14] = tested on: HepG2; assay: drug sensitivity score (DSS) for viability; higher = more toxic; extreme values may be limits of the assay
[15] = tested on: HepG2; assay: relative viability EC50 (midpoint between 100% and the lowest measured viability); higher = less toxic

SMILES | cell viability ([1]; 1 nM) [%] | cell viability ([1]; 10 nM) [%] | cell viability ([1]; 100 nM) [%] | cell viability ([1]; 1000 nM) [%] | cell viability ([1]; 10000 nM) [%] | cell viability ([2]; 1 nM) [%] | cell viability ([2]; 10 nM) [%] | cell viability ([2]; 100 nM) [%] | cell viability ([2]; 1000 nM) [%] | cell viability ([2]; 10000 nM) [%] | cell viability ([3]; 1 nM) [%] | cell viability ([3]; 10 nM) [%] | cell viability ([3]; 100 nM) [%] | cell viability ([3]; 1000 nM) [%] | cell viability ([3]; 10000 nM) [%] | cell viability ([4]; 1 nM) [%] | cell viability ([4]; 10 nM) [%] | cell viability ([4]; 100 nM) [%] | cell viability ([4]; 1000 nM) [%] | cell viability ([4]; 10000 nM) [%] | drug sensitivity score [5] | drug sensitivity score [6] | drug sensitivity score [7] | drug sensitivity score [8] | relative viability EC50 [9] [µM] | relative viability EC50 [10] [µM] | relative viability EC50 [11] [µM] | relative viability EC50 [12] [µM] | cell viability ([13]; 1 nM) [%] | cell viability ([13]; 10 nM) [%] | cell viability ([13]; 100 nM) [%] | cell viability ([13]; 1000 nM) [%] | cell viability ([13]; 10000 nM) [%] | drug sensitivity score [14] | relative viability EC50 [15] [µM]
CCOC(=O)O[C@]1(C(=O)OCCl)CC[C@H]2[C@@H]3CCC4=CC(=O)C=C[C@]4(C)[C@H]3[C@@H](O)C[C@@]21C [loteprednol] | 105 | 102 | 100 | 93.4 | 98.1 | 98.8 | 100 | 103 | 87.7 | 95.2 | 112 | 104 | 99.1 | 92.1 | 77.9 | 102 | 100 | 102 | 99.2 | 96 | 0 | 0.6 | 1.6 | 0 | > 10 | > 10 | > 10 | > 10 | – | – | – | – | – | – | –
CN[C@H]1CC[C@@H](c2ccc(Cl)c(Cl)c2)c2ccccc21 [SERTRALINE HYDROCHLORIDE] | 103 | 99.1 | 93 | 100 | 81.5 | 102 | 105 | 104 | 103 | 58.3 | 99.2 | 103 | 95.9 | 102 | 84.4 | 98.5 | 97.4 | 102 | 93.6 | 77.8 | 0.5 | 1.9 | 0.2 | 1.6 | > 10 | – | > 10 | > 10 | 102 | 108 | 98.1 | 112 | 79.2 | 0.4 | > 10
O=C(O)c1ccccc1S [o-mercapto-benzoic-acid] | 97.9 | 94.1 | 95.9 | 94.8 | 109 | – | – | – | – | – | 98 | 87.2 | 86.4 | 102 | 99.4 | 92.2 | 97.9 | 96.2 | 105 | 106 | 0 | – | 0 | 0 | > 10 | – | > 10 | > 10 | 99.7 | 91.5 | 89.9 | 101 | 112 | 0 | > 10
COC(=O)Nc1ccc(-c2nc(N3CCOCC3)c3cnn(C4CCN(C(=O)OC)CC4)c3n2)cc1 [WYE-354] | 99.3 | 98.3 | 104 | 98.6 | 84.8 | 93.6 | 91.4 | 95.8 | 92.2 | 52.2 | 98.3 | 99.3 | 97.3 | 83.1 | 48.3 | 97.4 | 99.7 | 91.8 | 96.4 | 64.8 | 0.4 | 3.8 | 5 | 2.2 | > 10 | – | 1.38 | – | 104 | 107 | 94.8 | 102 | 44.8 | 2.8 | 3.34
CC[C@@]1(O)C(=O)OCc2c1cc1n(c2=O)Cc2c-1nc1cc(F)c(C)c3c1c2[C@@H](N)CC3 [exatecan-mesylate] | 102 | 92 | 56.9 | 17 | 4.1 | – | – | – | – | – | 90.7 | 72.7 | 32.7 | 21 | 20.7 | 110 | 91.8 | 60.6 | 15.9 | 0.4 | 20.9 | – | 25.8 | 20.5 | 0.127 | – | 0.0178 | 0.158 | 65.8 | 40.5 | 20.8 | 2.3 | 3.9 | 36.4 | 0.0038
CCCCCCOC(=O)NC(=N)c1ccc(NCc2nc3cc(C(=O)N(CCC(=O)OCC)c4ccccn4)ccc3n2C)cc1 [dabigatran-etexilate] | 97.7 | 92.9 | 101 | 95.9 | 96.9 | 101 | 82.3 | 109 | 103 | 84.3 | 96.5 | 88.5 | 104 | 93.8 | 78.1 | 97.8 | 103 | 99.4 | 102 | 108 | 0 | 0.1 | 1.5 | 0 | > 10 | > 10 | > 10 | > 10 | 91.6 | 106 | 88.9 | 116 | 72.7 | 0.7 | –
O=S(=O)(NCCNC/C=C/c1ccc(Br)cc1)c1cccc2cnccc12 [H-89] | 101 | 96 | 102 | 97.2 | 90.7 | 79.7 | 100 | 87.6 | 103 | 118 | 99.9 | 103 | 98.7 | 99.9 | 89.6 | 96.8 | 97.6 | 100 | 97 | 82.9 | 0 | 0 | 0 | 0.7 | > 10 | > 10 | > 10 | > 10 | 95.5 | 96.4 | 91.9 | 102 | 74.7 | 0.8 | –
C/C1=C/C[C@@H](/C(C)=C/c2csc(C)n2)OC(=O)C[C@H](O)C(C)(C)C(=O)[C@H](C)[C@@H](O)[C@@H](C)CCC1 [epothilone-D] | 97.6 | 53.1 | 29.5 | 23.2 | 41.5 | 110 | 84 | 61.9 | 55.2 | 54.1 | 101 | 83.1 | 53.9 | 46.3 | 56.9 | 99.8 | 83.9 | 45.1 | 25.3 | 46.8 | 29.4 | 14.8 | 17.4 | 21.5 | 0.0075 | – | 0.0202 | 0.0363 | 91.8 | 50.6 | 22.2 | 15.8 | 22.2 | 31.7 | 0.0074
CCCCc1ncc(/C=C(\Cc2cccs2)C(=O)O)n1Cc1ccc(C(=O)O)cc1 [eprosartan] | 100 | 101 | 99.3 | 102 | 95.9 | 93.8 | 94.9 | 101 | 106 | 109 | 98.1 | 106 | 105 | 110 | 103 | 104 | 97.7 | 100 | 97.1 | 101 | 0 | 0 | 0 | 0 | > 10 | > 10 | > 10 | > 10 | – | – | – | – | – | – | –
OC[C@H]1O[C@@H](n2cnc3c(N[C@H]4CCC[C@@H]4O)ncnc32)[C@H](O)[C@@H]1O | 99.4 | 100 | 98.6 | 97.1 | 102 | – | – | – | – | – | 103 | 99.3 | 104 | 101 | 107 | 103 | 102 | 98.9 | 99 | 97.3 | 0 | – | 0 | 0 | > 10 | – | > 10 | > 10 | 86.2 | 84 | 95 | 102 | 94 | 0 | > 10
O=C(CCCN1CCC(O)(c2ccc(Cl)cc2)CC1)c1ccc(F)cc1 [haloperidol] | 102 | 104 | 97.6 | 103 | 99.1 | 99.5 | 97.9 | 92.6 | 104 | 114 | 110 | 104 | 97.1 | 100 | 103 | 101 | 97.3 | 95.1 | 98.9 | 94.1 | 0 | 0 | 0 | 0 | > 10 | > 10 | > 10 | > 10 | – | – | – | – | – | – | –
Cc1cc(N)c2ccccc2[n+]1CCCCCCCCCC[n+]1c(C)cc(N)c2ccccc21 [dequalinium] | 104 | 102 | 96.2 | 102 | 60.1 | 101 | 92.7 | 104 | 107 | 73.5 | 96.9 | 94.4 | 98.9 | 92.2 | 36.4 | 101 | 104 | 104 | 102 | 87.4 | 1.8 | 0.8 | 4.8 | 0 | – | – | 2.16 | > 10 | 98.6 | 100 | 92.7 | 76.2 | 33.8 | 6.4 | 1.38
CC(=O)NNC(=O)N1Cc2ccccc2Oc2ccc(Cl)cc21 | 98.5 | 95.9 | 101 | 99.9 | 102 | – | – | – | – | – | 105 | 100 | 107 | 95.5 | 99.7 | – | – | – | – | – | 0 | – | 0 | – | > 10 | – | > 10 | – | 98.5 | 102 | 96.1 | 94 | 87.7 | 0.1 | > 10
C[C@]1(O)C[C@@H](c2nc(-c3ccc4ccc(-c5ccccc5)nc4c3)c3c(N)nccn32)C1 [linsitinib] | 101 | 103 | 92.7 | 82.4 | 67.9 | 97.7 | 104 | 101 | 116 | 104 | 96.6 | 98.9 | 84.7 | 75.7 | 47.2 | 99.9 | 98.9 | 104 | 96.5 | 109 | 3.3 | 0 | 6.3 | 0 | – | > 10 | 0.674 | > 10 | 90.5 | 87 | 95.2 | 62 | 54.8 | 7.5 | –
Cn1c(COP(=O)(NCCBr)NCCBr)cnc1[N+](=O)[O-] [TH-302] | 103 | 105 | 99.9 | 105 | 108 | – | – | – | – | – | 107 | 94.5 | 98.6 | 97.7 | 89 | 101 | 100 | 98.8 | 93.1 | 97.5 | 0 | – | 0 | 0 | > 10 | – | > 10 | > 10 | 97.6 | 97 | 118 | 103 | 81.3 | 0.4 | > 10
O=C(O)COc1ccc(OCCNC[C@H](O)COc2ccccc2)cc1 [ICI-215,001] | – | – | – | – | – | – | – | – | – | – | 98.1 | 111 | 103 | 103 | 116 | 106 | 97.5 | 101 | 104 | 92.6 | – | – | 0 | 0 | – | – | > 10 | > 10 | 106 | 104 | 104 | 104 | 97.1 | 0 | > 10
